Consider ten compounds from patent US20220315554A1, “COMPOUNDS COMPRISING A […] LIGAND AND USE THEREOF” (priority 2019, published 2022).

Numbered stars: 1 amine (or outer) side, 2 acyl side, 3 side chain; on linkers, the order of the positions; unused ones are H or OH. Bridge positions count the residues as written; N and C are the ends. Square brackets hold non-standard residues; d marks the D form. Peptide text beside a SMILES is read from it. * marks the point of attachment. mXylylene = c1cc(C[*:1])cc(C[*:2])c1; αMeF = C[C@](N)(Cc1ccccc1)C(=O)O; 4Pal = N[C@@H](Cc1ccncc1)C(=O)O; Aic = NC1(C(=O)O)Cc2ccccc2C1; Hexanoyl = CCCCCC(=O)*

A short description of series [1]: Plasma stability assay, mouse plasma. The class given is in vitro ADME. The note with it: 4 h incubation, 37° C., read-out: % intact compound remaining after incubation, Mouse plasma.
The target in series [2] is T1, Human recombinant FAP (Homo sapiens, UniProt Q12884).
T1 sequence (Q12884 1-760): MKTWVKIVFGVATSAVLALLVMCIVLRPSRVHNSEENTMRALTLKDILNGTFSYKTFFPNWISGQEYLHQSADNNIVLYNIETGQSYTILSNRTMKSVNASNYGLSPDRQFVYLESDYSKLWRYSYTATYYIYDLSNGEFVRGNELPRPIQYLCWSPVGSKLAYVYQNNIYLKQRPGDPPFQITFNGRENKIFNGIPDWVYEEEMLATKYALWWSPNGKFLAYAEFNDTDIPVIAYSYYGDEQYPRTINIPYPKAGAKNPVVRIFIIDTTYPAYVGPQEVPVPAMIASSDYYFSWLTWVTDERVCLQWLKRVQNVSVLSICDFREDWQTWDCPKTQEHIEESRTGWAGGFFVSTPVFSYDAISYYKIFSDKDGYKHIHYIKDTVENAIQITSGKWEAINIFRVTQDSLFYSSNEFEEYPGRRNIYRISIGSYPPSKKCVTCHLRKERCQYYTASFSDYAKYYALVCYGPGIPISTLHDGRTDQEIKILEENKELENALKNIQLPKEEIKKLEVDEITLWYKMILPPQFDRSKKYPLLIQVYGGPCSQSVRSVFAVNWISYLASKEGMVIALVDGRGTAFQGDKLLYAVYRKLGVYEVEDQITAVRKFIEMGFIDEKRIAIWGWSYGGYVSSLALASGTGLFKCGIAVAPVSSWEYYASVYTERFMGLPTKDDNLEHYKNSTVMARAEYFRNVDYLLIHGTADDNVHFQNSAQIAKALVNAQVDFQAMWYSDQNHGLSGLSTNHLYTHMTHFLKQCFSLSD
As to the kind of experiment: Surface plasmon resonance (Biacore) assay. The class given is binding. For orientation: Surface plasmon resonance follows binding to a sensor surface in real time, without labels.

The target in series [3] is T1, Human recombinant FAP. As to the kind of experiment: FRET-based FAP protease activity assay. The class given is biochemical. Also noted: purchased R&D systems 3715-SE. Conditions: pIC50 Category (Activity), recombinant human FAP, FRET substrate, 37° C.
Series [4] deals with T2, FAP-expressing human WI-38 fibroblasts (Homo sapiens, UniProt Q12884).
T2 construct: FAP-expressing human WI-38 fibroblasts (ECACC) were cultured in EMEM; host or cells: WI-38 human fibroblasts
T2 sequence (Q12884 1-760): T1 sequence (Q12884 1-760)
Nature of the series: Competitive FACS binding assay. The note with it: pIC50 Category (FACS), competition with 3 nM Cy5-labeled compound, WI-38 fibroblasts, 4° C., 1 hour. The procedure:
Cells were analyzed in an Attune NxT flow cytometer. […]
A general note: In flow cytometry, cells or beads pass a laser one at a time.

For the compound `CCCCCC(=O)N[C@H]1CSCc2cccc(c2)CSC[C@@H](C(=O)N[C@@H](CC(=O)O)C(=O)N[C@@H](Cc2c[nH]cn2)C(=O)N[C@@H](Cc2ccccc2)C(=O)N[C@@H](CCCNC(=N)N)C(=O)N[C@@H](CC(=O)O)C(N)=O)NC(=O)[C@H](Cc2ccccc2)NC(=O)[C@H](CCC(=O)O)NC(=O)[C@H]([C@@H](C)O)NC(=O)[C@@H]2CCCN2C(=O)[C@@H]2CCCN2C1=O` [3BP-2974, Hex-[Cys(3MeBn)-Pro-Pro-Thr-Glu-Phe-Cys]-Asp-His-Phe-Arg-Asp-NH2] (Hexanoyl-CPPTEFCDHFRD-NH2; linker 1-7 via mXylylene), the share remaining – broadly, the share of the starting amount still present when the sample was taken – at 4 h, 9.8 µM in series [1] turned out to be 92%. For the same compound, in series [2], the dissociation constant (Kd) (as a rule, the constant that tells how readily two partners part at equilibrium) was below 0.01 µM. The IC50 in series [3] and in series [4] was below 0.01 µM each time.
Turning to `CSCC[C@H](NC(C)=O)C(=O)N[C@H]1CSCc2cccc(c2)CSC[C@@H](C(=O)N[C@@H](CC(=O)O)C(=O)N[C@@H](Cc2c[nH]cn2)C(=O)N[C@@H](Cc2ccccc2)C(=O)N[C@@H](CCCNC(=N)N)C(=O)N[C@@H](CC(=O)O)C(N)=O)NC(=O)[C@H](Cc2ccccc2)NC(=O)[C@H](CCC(=O)O)NC(=O)[C@H]([C@@H](C)O)NC(=O)[C@@H]2CCCN2C(=O)[C@@H]2CCCN2C1=O` [3BP-2975, Ac-Met-[Cys(3MeBn)-Pro-Pro-Thr-Glu-Phe-Cys]-Asp-His-Phe-Arg-Asp-NH2] (Ac-MCPPTEFCDHFRD-NH2; linker 2-8 via mXylylene), the fraction remaining at 4 h, 9.8 µM in series [1] came out at 100%. Moreover, in series [2], the Kd is below 0.01 µM. The half-inhibitory concentration (IC50) in series [3] and in series [4] was below 0.01 µM in each case.
Regarding `CSCC[C@H](NC(C)=O)C(=O)N[C@H]1CSCc2cccc(c2)CSC[C@@H](C(=O)N[C@@H](CC(=O)O)C(=O)N[C@@H](Cc2c[nH]cn2)C(=O)NC2(C(=O)N[C@@H](CCCNC(=N)N)C(=O)N[C@@H](CC(=O)O)C(N)=O)Cc3ccccc3C2)NC(=O)[C@H](Cc2ccccc2)NC(=O)[C@H](CCC(=O)O)NC(=O)[C@H]([C@@H](C)O)NC(=O)[C@@H]2CCCN2C(=O)[C@@H]2CCCN2C1=O` [3BP-3190, Ac-Met-[Cys(3MeBn)-Pro-Pro-Thr-Glu-Phe-Cys]-Asp-His-Aic-Arg-Asp-NH2] (Ac-MCPPTEFCDH[Aic]RD-NH2; linker 2-8 via mXylylene), the amount remaining at 4 h, 9.8 µM in series [1] came out at 88%. For the same compound, the IC50 in series [3] and in series [4] was below 0.01 µM in each case.
As to `CSCC[C@H](NC(C)=O)C(=O)N[C@H]1CSCc2cccc(c2)CSC[C@@H](C(=O)N[C@@H](CC(=O)O)C(=O)N[C@@H](Cc2c[nH]cn2)C(=O)N[C@@H](Cc2ccncc2)C(=O)N[C@@H](CCCNC(=N)N)C(=O)N[C@@H](CC(=O)O)C(N)=O)NC(=O)[C@H](Cc2ccccc2)NC(=O)[C@H](CCC(=O)O)NC(=O)[C@H]([C@@H](C)O)NC(=O)[C@@H]2CCCN2C(=O)[C@@H]2CCCN2C1=O` [3BP-3191, Ac-Met-[Cys(3MeBn)-Pro-Pro-Thr-Glu-Phe-Cys]-Asp-His-Ppa-Arg-Asp-NH2] (Ac-MCPPTEFCDH[4Pal]RD-NH2; linker 2-8 via mXylylene), in series [1], the fraction remaining at 4 h, 9.8 µM was 100%. The half-inhibitory concentration (IC50) in series [3] and in series [4] was below 0.01 µM in each case.
On to `CSCC[C@H](NC(C)=O)C(=O)N[C@H]1CSCc2cccc(c2)CSC[C@@H](C(=O)N[C@@H](CC(=O)O)C(=O)N[C@@H](Cc2c[nH]cn2)C(=O)N[C@@H](C)C(=O)N[C@@H](CCCNC(=N)N)C(=O)N[C@@H](CC(=O)O)C(N)=O)NC(=O)[C@H](Cc2ccccc2)NC(=O)[C@H](CCC(=O)O)NC(=O)[C@H]([C@@H](C)O)NC(=O)[C@@H]2CCCN2C(=O)[C@@H]2CCCN2C1=O` [3BP-3196, Ac-Met-[Cys(3MeBn)-Pro-Pro-Thr-Glu-Phe-Cys]-Asp-His-Ala-Arg-Asp-NH2] (Ac-MCPPTEFCDHARD-NH2; linker 2-8 via mXylylene), for which, in series [1], the fraction remaining at 4 h, 9.8 µM is 87%. The IC50 in series [3] and in series [4] was below 0.01 µM throughout.
Consider `CC(=O)N[C@H]1CSCc2cccc(c2)CSC[C@@H](C(=O)N[C@@H](CC(=O)O)C(=O)N[C@@H](Cc2c[nH]cn2)C(=O)N[C@@H](Cc2ccccc2)C(=O)N[C@@H](CCCNC(=N)N)C(=O)N[C@@H](CC(=O)O)C(N)=O)NC(=O)[C@H](Cc2ccccc2)NC(=O)[C@H](CCC(=O)O)NC(=O)[C@H]([C@@H](C)O)NC(=O)[C@@H]2CCCN2C(=O)[C@@H]2CCCN2C1=O` [3BP-3202, Ac-[Cys(3MeBn)-Pro-Pro-Thr-Glu-Phe-Cys]-Asp-His-Phe-Arg-Asp-NH2] (Ac-CPPTEFCDHFRD-NH2; linker 1-7 via mXylylene), for which the amount remaining at 4 h, 9.8 µM in series [1] came to 78%. For the same compound, in series [2], the Kd was below 0.01 µM. Further, the IC50 in series [3] and in series [4] was below 0.01 µM in each case.
As to `CSCC[C@H](NC(C)=O)C(=O)N[C@H]1CSCc2cccc(c2)CSC[C@@H](C(=O)N[C@@H](CC(=O)O)C(=O)N[C@@H](Cc2c[nH]cn2)C(=O)N[C@@](C)(Cc2ccccc2)C(=O)N[C@@H](CCCNC(=N)N)C(=O)N[C@@H](CC(=O)O)C(N)=O)NC(=O)[C@H](Cc2ccccc2)NC(=O)[C@H](CCC(=O)O)NC(=O)[C@H]([C@@H](C)O)NC(=O)[C@@H]2CCCN2C(=O)[C@@H]2CCCN2C1=O` [3BP-3203, Ac-Met-[Cys(3MeBn)-Pro-Pro-Thr-Glu-Phe-Cys]-Asp-His-Amf-Arg-Asp-NH2] (Ac-MCPPTEFCDH[αMeF]RD-NH2; linker 2-8 via mXylylene), the amount remaining at 4 h, 9.8 µM in series [1] is 100%. The IC50 in series [3] and in series [4] was below 0.01 µM each time.
Take `CSCC[C@H](NC(C)=O)C(=O)N[C@H]1CSCc2cccc(c2)CSC[C@@H](C(=O)N[C@@H](CC(=O)O)C(=O)N[C@H](Cc2c[nH]cn2)C(=O)N[C@@H](Cc2ccccc2)C(=O)N[C@@H](CCCNC(=N)N)C(=O)N[C@@H](CC(=O)O)C(N)=O)NC(=O)[C@H](Cc2ccccc2)NC(=O)[C@H](CCC(=O)O)NC(=O)[C@H]([C@@H](C)O)NC(=O)[C@@H]2CCCN2C(=O)[C@@H]2CCCN2C1=O` [3BP-3210, Ac-Met-[Cys(3MeBn)-Pro-Pro-Thr-Glu-Phe-Cys]-Asp-his-Phe-Arg-Asp-NH2] (Ac-MCPPTEFCD[dH]FRD-NH2; linker 2-8 via mXylylene): the amount remaining at 4 h, 9.8 µM in series [1] was determined as 100%. Also, the IC50 in series [3] and in series [4] was below 0.01 µM in each case.
Turning to `CSCC[C@H](NC(C)=O)C(=O)N[C@H]1CSCc2cccc(c2)CSC[C@@H](C(=O)N[C@@H](CC(=O)O)C(=O)N[C@@H](Cc2c[nH]cn2)C(=O)N[C@H](Cc2ccccc2)C(=O)N[C@@H](CCCNC(=N)N)C(=O)N[C@@H](CC(=O)O)C(N)=O)NC(=O)[C@H](Cc2ccccc2)NC(=O)[C@H](CCC(=O)O)NC(=O)[C@H]([C@@H](C)O)NC(=O)[C@@H]2CCCN2C(=O)[C@@H]2CCCN2C1=O` [3BP-3211, Ac-Met-[Cys(3MeBn)-Pro-Pro-Thr-Glu-Phe-Cys]-Asp-His-phe-Arg-Asp-NH2] (Ac-MCPPTEFCDH[dF]RD-NH2; linker 2-8 via mXylylene), the amount remaining at 4 h, 9.8 µM in series [1] amounted to 85%. The IC50 in series [3] and in series [4] was below 0.01 µM throughout.
As for `CSCC[C@H](NC(C)=O)C(=O)N[C@H]1CSCc2cccc(c2)CSC[C@@H](C(=O)N[C@@H](CC(=O)O)C(=O)N[C@@H](Cc2c[nH]cn2)C(=O)N[C@@H](Cc2ccccc2)C(=O)N[C@H](CCCNC(=N)N)C(=O)N[C@@H](CC(=O)O)C(N)=O)NC(=O)[C@H](Cc2ccccc2)NC(=O)[C@H](CCC(=O)O)NC(=O)[C@H]([C@@H](C)O)NC(=O)[C@@H]2CCCN2C(=O)[C@@H]2CCCN2C1=O` [3BP-3212, Ac-Met-[Cys(3MeBn)-Pro-Pro-Thr-Glu-Phe-Cys]-Asp-His-Phe-arg-Asp-NH2] (Ac-MCPPTEFCDHF[dR]D-NH2; linker 2-8 via mXylylene), the amount remaining at 4 h, 9.8 µM in series [1] amounted to 80%. The IC50 in series [3] and in series [4] was below 0.01 µM each time.
